Consider 26 compounds from patent US7507730B2, “Substituted pyrazolo[1,5-a]pyrimidines as potassium channel activators” (Bristol-Myers Squibb Company, priority 2005, dated 2009).

Each structure is given as a SMILES string.

The first test deals with Kv1.5 (Homo sapiens, UniProt P22460). The experiment in a line: Kv1.5 inhibition assay (IKur inhibitor assay per cited references). The test is classed as cell-based. To be noted: at 0.3 μM. From the text: Assays to determine the degree of activity of a compound as an IKur inhibitor are well known in the art and are described in references such as J. Gen. Physiol. Apr.; 101 (4):513-43, and Br. J. Pharmacol. 1995 May; 115(2):267-74.
Chain of Kv1.5 (P22460 whole entry): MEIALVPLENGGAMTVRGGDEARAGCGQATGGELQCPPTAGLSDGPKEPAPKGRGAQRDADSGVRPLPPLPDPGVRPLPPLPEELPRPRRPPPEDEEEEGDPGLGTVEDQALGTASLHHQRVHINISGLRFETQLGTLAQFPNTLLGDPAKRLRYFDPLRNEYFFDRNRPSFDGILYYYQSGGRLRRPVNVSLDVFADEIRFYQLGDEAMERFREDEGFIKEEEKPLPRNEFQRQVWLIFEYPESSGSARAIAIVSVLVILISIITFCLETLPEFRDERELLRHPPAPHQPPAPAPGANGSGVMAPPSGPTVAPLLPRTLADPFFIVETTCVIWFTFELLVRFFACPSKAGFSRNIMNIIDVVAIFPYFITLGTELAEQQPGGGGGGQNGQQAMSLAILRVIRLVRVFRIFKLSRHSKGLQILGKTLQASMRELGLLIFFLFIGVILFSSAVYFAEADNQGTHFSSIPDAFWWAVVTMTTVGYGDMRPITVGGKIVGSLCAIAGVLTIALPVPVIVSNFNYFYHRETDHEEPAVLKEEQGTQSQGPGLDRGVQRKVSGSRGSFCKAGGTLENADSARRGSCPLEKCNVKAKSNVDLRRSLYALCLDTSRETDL
As a reminder, the inhibition is the drop in the measured response relative to a control, in per cent. As for `CC1=C(S(=O)(=O)N2CCCC2)C(c2ccc(Cl)c(Cl)c2)n2nc(C(F)(F)F)cc2N1` (single isomer, unassigned) [Example 59 Isomer 1, 7-(3,4-Dichlorophenyl)-5-methyl-6-(pyrrolidin-1-ylsulfonyl)-2-(trifluoromethyl)-4,7-dihydropyrazolo[1,5-a]pyrimidine], at 0.3 µM the inhibition was 89.8%.

In turn, `CC1=C(S(=O)(=O)N2CCCC2)C(c2ccc(Cl)c(Cl)c2)n2nc(C(F)(F)F)cc2N1` (single isomer, unassigned) [Example 59 Isomer 2, 7-(3,4-Dichlorophenyl)-5-methyl-6-(pyrrolidin-1-ylsulfonyl)-2-(trifluoromethyl)-4,7-dihydropyrazolo[1,5-a]pyrimidine] displayed a Kv1.5% inhibition of 86.4%.

`CCN(CC)S(=O)(=O)C1=C(C)Nc2cc(C)nn2C1c1ccc(Cl)c(Cl)c1` (single isomer, unassigned) [Example 61 Isomer 1, 7-(3,4-Dichlorophenyl)-N,N-diethyl-2,5-dimethyl-4,7-dihydropyrazolo[1,5-a]pyrimidine-6-sulfonamide] showed a Kv1.5% inhibition of 90.5%.

`CCN(CC)S(=O)(=O)C1=C(C)Nc2cc(C)nn2C1c1ccc(Cl)c(Cl)c1` (single isomer, unassigned) [Example 61 Isomer 2, 7-(3,4-Dichlorophenyl)-N,N-diethyl-2,5-dimethyl-4,7-dihydropyrazolo[1,5-a]pyrimidine-6-sulfonamide] registered a Kv1.5% inhibition of 42.3%.

Compound `CC1=C(S(=O)(=O)N(C)c2ccccc2)C(c2ccc(Cl)c(Cl)c2)n2nc(C(F)(F)F)cc2N1` (single isomer, unassigned) [Example 63 Isomer 1, 7-(3,4-Dichlorophenyl)-N,5-dimethyl-N-phenyl-2-(trifluoromethyl)-4,7-dihydropyrazolo[1,5-a]pyrimidine-6-sulfonamide] had an inhibition at 0.3 µM of 30%.

For the compound `CC1=C(S(=O)(=O)N(C)c2ccccc2)C(c2ccc(Cl)c(Cl)c2)n2nc(C(F)(F)F)cc2N1` (single isomer, unassigned) [Example 63 Isomer 2, 7-(3,4-Dichlorophenyl)-N,5-dimethyl-N-phenyl-2-(trifluoromethyl)-4,7-dihydropyrazolo[1,5-a]pyrimidine-6-sulfonamide], the Kv1.5% inhibition is listed as 31%.

`CCN(CC)S(=O)(=O)C1=C(C)Nc2cc(C(F)(F)F)nn2C1c1ccc(Cl)c(Cl)c1` (single isomer, unassigned) [Example 64 Isomer 1, 7-(3,4-Dichlorophenyl)-N,N-diethyl-5-methyl-2-(trifluoromethyl)-4,7-dihydropyrazolo[1,5-a]pyrimidine-6-sulfonamide]: the inhibition at 0.3 µM was 76.2%.

Compound `CCN(CC)S(=O)(=O)C1=C(C)Nc2cc(C(F)(F)F)nn2C1c1ccc(Cl)c(Cl)c1` (single isomer, unassigned) [Example 64 Isomer 2, 7-(3,4-Dichlorophenyl)-N,N-diethyl-5-methyl-2-(trifluoromethyl)-4,7-dihydropyrazolo[1,5-a]pyrimidine-6-sulfonamide] displayed a Kv1.5% inhibition of 60%.

Take `CC1=C(S(=O)(=O)N2CCCCC2)C(c2ccc(Cl)c(Cl)c2)n2nc(C(F)(F)F)cc2N1` (single isomer, unassigned) [Example 65 Isomer 1, 7-(3,4-Dichlorophenyl)-5-methyl-6-(piperidin-1-ylsulfonyl)-2-(trifluoromethyl)-4,7-dihydropyrazolo[1,5-a]pyrimidine]: 0.3 µM produced 81% inhibition.

With `CC1=C(S(=O)(=O)N2CCCCC2)C(c2ccc(Cl)c(Cl)c2)n2nc(C(F)(F)F)cc2N1` (single isomer, unassigned) [Example 65 Isomer 2, 7-(3,4-Dichlorophenyl)-5-methyl-6-(piperidin-1-ylsulfonyl)-2-(trifluoromethyl)-4,7-dihydropyrazolo[1,5-a]pyrimidine], the Kv1.5% inhibition is reported as 78%.

Compound `CC1=C(S(=O)(=O)N2CCOCC2)C(c2ccc(Cl)c(Cl)c2)n2nc(C(F)(F)F)cc2N1` (single isomer, unassigned) [Example 66 Isomer 1, 7-(3,4-Dichlorophenyl)-5-methyl-6-(morpholinosulfonyl)-2-(trifluoromethyl)-4,7-dihydropyrazolo[1,5-a]pyrimidine] returned an inhibition at 0.3 µM of 51%.

On to `CC1=C(S(=O)(=O)N2CCOCC2)C(c2ccc(Cl)c(Cl)c2)n2nc(C(F)(F)F)cc2N1` (single isomer, unassigned) [Example 66 Isomer 2, 7-(3,4-Dichlorophenyl)-5-methyl-6-(morpholinosulfonyl)-2-(trifluoromethyl)-4,7-dihydropyrazolo[1,5-a]pyrimidine], for which the Kv1.5% inhibition is reported as 49%.

As to `CC1=C(S(=O)(=O)N2CCCC2)C(c2ccc(Cl)cc2)n2nc(C(F)(F)F)cc2N1` (single isomer, unassigned) [Example 67 Isomer 1, 7-(4-Chlorophenyl)-5-methyl-6-(pyrrolidin-1-ylsulfonyl)-2-(trifluoromethyl)-4,7-dihydropyrazolo[1,5-a]pyrimidine], 0.3 µM produced 60% inhibition.

`CC1=C(S(=O)(=O)N2CCCC2)C(c2ccc(Cl)cc2)n2nc(C(F)(F)F)cc2N1` (single isomer, unassigned) [Example 67 Isomer 2, 7-(4-Chlorophenyl)-5-methyl-6-(pyrrolidin-1-ylsulfonyl)-2-(trifluoromethyl)-4,7-dihydropyrazolo[1,5-a]pyrimidine] had a Kv1.5% inhibition of 54%.

As for `CC1=C(S(=O)(=O)N2CCCC2)C(c2ccc(Cl)c(Cl)c2)n2nc(C)c(Cl)c2N1` (single isomer, unassigned) [Example 69 Isomer 1, 3-Chloro-7-(3,4-dichlorophenyl)-2,5-dimethyl-6-(pyrrolidin-1-ylsulfonyl)-4,7-dihydropyrazolo[1,5-a]pyrimidine], the inhibition at 0.3 µM turned out to be 40%.

With `CC1=C(S(=O)(=O)N2CCCC2)C(c2ccc(Cl)c(Cl)c2)n2nc(C)c(Cl)c2N1` (single isomer, unassigned) [Example 69 Isomer 2, 3-Chloro-7-(3,4-dichlorophenyl)-2,5-dimethyl-6-(pyrrolidin-1-ylsulfonyl)-4,7-dihydropyrazolo[1,5-a]pyrimidine], the Kv1.5% inhibition is reported as 40%.

Turning to `CC1=C(C(=O)N(C)S(=O)(=O)c2ccccc2)C(c2ccc(Cl)c(Cl)c2)n2nc(C)cc2N1` (single isomer, unassigned) [Example 79 Isomer 1, 7-(3,4-Dichlorophenyl)-N,2,5-trimethyl-N-(phenylsulfonyl)-4,7-dihydropyrazolo[1,5-a]pyrimidine-6-carboxamide], the Kv1.5% inhibition came out at 25%.

`CC1=C(C(=O)N(C)S(=O)(=O)c2ccccc2)C(c2ccc(Cl)c(Cl)c2)n2nc(C)cc2N1` (single isomer, unassigned) [Example 79 Isomer 2, 7-(3,4-Dichlorophenyl)-N,2,5-trimethyl-N-(phenylsulfonyl)-4,7-dihydropyrazolo[1,5-a]pyrimidine-6-carboxamide] yielded a Kv1.5% inhibition of 88%.

`CC1=C(C(=O)N(C)S(=O)(=O)c2ccc(F)cc2)C(c2ccc(Cl)c(Cl)c2)n2nc(C)cc2N1` (single isomer, unassigned) [Example 80 Isomer 1, 7-(3,4-Dichlorophenyl)-N-(4-fluorophenylsulfonyl)-N,2,5-trimethyl-4,7-dihydropyrazolo[1,5-a]pyrimidine-6-carboxamide] displayed a Kv1.5% inhibition of 37%.

`CC1=C(C(=O)N(C)S(=O)(=O)c2ccc(F)cc2)C(c2ccc(Cl)c(Cl)c2)n2nc(C)cc2N1` (single isomer, unassigned) [Example 80 Isomer 2, 7-(3,4-Dichlorophenyl)-N-(4-fluorophenylsulfonyl)-N,2,5-trimethyl-4,7-dihydropyrazolo[1,5-a]pyrimidine-6-carboxamide] displayed a Kv1.5% inhibition of 85%.

Compound `COc1ccc(S(=O)(=O)N(C)C(=O)C2=C(C)Nc3cc(C)nn3C2c2ccc(Cl)c(Cl)c2)cc1` (single isomer, unassigned) [Example 81 Isomer 1, 7-(3,4-Dichlorophenyl)-N-(4-methoxyphenylsulfonyl)-N,2,5-trimethyl-4,7-dihydropyrazolo[1,5-a]pyrimidine-6-carboxamide] yielded an inhibition at 0.3 µM of 16%.

Compound `CC1=C(C(=O)N2CCCCS2(=O)=O)C(c2ccc(Cl)c(Cl)c2)n2nc(C)cc2N1` (single isomer, unassigned) [Example 84 Isomer 1] had a Kv1.5% inhibition of 19%.

`CC1=C(C(=O)N2CCCCS2(=O)=O)C(c2ccc(Cl)c(Cl)c2)n2nc(C)cc2N1` (single isomer, unassigned) [Example 84 Isomer 2]: the Kv1.5% inhibition was 7%.

`CC1=C(C(=O)N(C)S(=O)(=O)c2ccccc2)C(c2ccc(Cl)c(Cl)c2)n2nc(C(F)(F)F)cc2N1` (single isomer, unassigned) [Example 90 Isomer 1, 7-(3,4-Dichlorophenyl)-N,5-dimethyl-N-(phenylsulfonyl)-2-(trifluoromethyl)-4,7-dihydropyrazolo[1,5-a]pyrimidine-6-carboxamide] yielded an inhibition at 0.3 µM of 37%.

On to `CC1=C(C(=O)N(C)S(=O)(=O)c2ccccc2)C(c2ccc(Cl)c(Cl)c2)n2nc(C(F)(F)F)cc2N1` (single isomer, unassigned) [Example 90 Isomer 2, 7-(3,4-Dichlorophenyl)-N,5-dimethyl-N-(phenylsulfonyl)-2-(trifluoromethyl)-4,7-dihydropyrazolo[1,5-a]pyrimidine-6-carboxamide], for which the Kv1.5% inhibition amounted to 51%.

Staying with this test, now noted: given as % inhibition, value given as a concentration in μM; read-out: Kv1.5% inhibition.
Take `COc1ccc(S(=O)(=O)N(C)C(=O)C2=C(C)Nc3cc(C)nn3C2c2ccc(Cl)c(Cl)c2)cc1` (single isomer, unassigned) [Example 81 Isomer 2, 7-(3,4-Dichlorophenyl)-N-(4-methoxyphenylsulfonyl)-N,2,5-trimethyl-4,7-dihydropyrazolo[1,5-a]pyrimidine-6-carboxamide]: the IC50 came out at 0.098 µM.
